The term EC50 denotes the concentration giving half of the maximal effect. A word on the MRT: it is the average time that molecules of a dose stay in the body. For orientation: fraction unbound means free concentration divided by total concentration. As a reminder, the solubility is the concentration that dissolves in the medium under given conditions. The low end stands for a poorly soluble substance, the high end for a readily soluble substance. The term inhibition denotes the percentage by which the read-out fell short of the control.

The source of these data is ChEMBL document CHEMBL5346967, “Discovery of BI 7446: A Potent Cyclic Dinucleotide STING Agonist with Broad-Spectrum Variant Activity for the Treatment of Cancer” (J Med Chem, 2023).

The target of data set [1] is T1, Stimulator of interferon genes protein (Homo sapiens, UniProt Q86WV6). The note with it: filed as agonist.
Target sequence in this assay (Q86WV6 whole entry): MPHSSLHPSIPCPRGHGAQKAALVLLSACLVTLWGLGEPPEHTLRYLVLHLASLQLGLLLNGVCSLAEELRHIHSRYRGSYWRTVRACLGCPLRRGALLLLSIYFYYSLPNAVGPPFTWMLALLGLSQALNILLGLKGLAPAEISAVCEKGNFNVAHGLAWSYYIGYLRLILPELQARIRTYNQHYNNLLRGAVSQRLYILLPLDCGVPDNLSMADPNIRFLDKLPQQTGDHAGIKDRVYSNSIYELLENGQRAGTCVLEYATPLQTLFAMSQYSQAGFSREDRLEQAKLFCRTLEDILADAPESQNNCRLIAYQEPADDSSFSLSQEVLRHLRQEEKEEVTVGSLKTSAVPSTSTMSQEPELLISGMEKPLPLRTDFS
Description: Binding affinity to recombinant human wild type STING (155 to 341 residues) expressed in Escherichia coli BL21 DE3 assessed as thermal stabilization by measuring change in melting temperature by differential scanning fluorimetry
Data set [2] concerns the target T1, Stimulator of interferon genes protein. The data set can be described thus: Agonist activity at human STING expressed in human THP-1 cells expressing IRF inducible SEAP reporter construct assessed as increase in interferon production incubated for 24 hrs by QUANTI-Blue colorimetric assay. In kind it is cell-based.
Target sequence in this assay (Q86WV6 whole entry): as above
For data set [3] the target is unchanged. In words: Agonist activity at human STING in STING knockout human THP1-Blue ISG cells expressing IRF inducible SEAP reporter construct assessed as increase in interferon production by measuring SEAP activity incubated for 24 hrs by Fingerprinting based QUANTI-Blue colorimetric assay. In kind it is cell-based.
Target sequence in this assay (Q86WV6 whole entry): as above
Data set [4] shares this target. The data set can be described thus: Agonist activity at human wild type STING overexpressed in STING knockout human THP1-Blue ISG cells expressing IRF inducible SEAP reporter construct assessed as increase in interferon production by measuring SEAP activity incubated for 24 hrs by Fingerprinting based QUANTI-Blue colorimetric assay. The format is cell-based.
Target sequence in this assay (Q86WV6 whole entry): as above
Data set [5] shares this target. In words: Agonist activity at human STING AQ variant overexpressed in STING knockout human THP1-Blue ISG cells expressing IRF inducible SEAP reporter construct assessed as increase in interferon production by measuring SEAP activity incubated for 24 hrs by Fingerprinting based QUANTI-Blue colorimetric assay. In kind it is cell-based.
Target sequence in this assay (Q86WV6 whole entry, looked up, change not shown): as the sequence (Q86WV6 whole entry) above
Data set [6] has the same target. In words: Agonist activity at human STING HAQ variant overexpressed in STING knockout human THP1-Blue ISG cells expressing IRF inducible SEAP reporter construct assessed as increase in interferon production by measuring SEAP activity incubated for 24 hrs by Fingerprinting based QUANTI-Blue colorimetric assay. The format is cell-based.
Target sequence in this assay (Q86WV6 whole entry, looked up, change not shown): as the sequence (Q86WV6 whole entry) above
Data set [7] has the same target. In words: Agonist activity at human STING REF variant overexpressed in STING knockout human THP1-Blue ISG cells expressing IRF inducible SEAP reporter construct assessed as increase in interferon production by measuring SEAP activity incubated for 24 hrs by Fingerprinting based QUANTI-Blue colorimetric assay. In kind it is cell-based.
Target sequence in this assay (Q86WV6 whole entry, looked up, change not shown): as the sequence (Q86WV6 whole entry) above
Data set [8] shares this target. The data set can be described thus: Agonist activity at human STING Q variant overexpressed in STING knockout human THP1-Blue ISG cells expressing IRF inducible SEAP reporter construct assessed as increase in interferon production by measuring SEAP activity incubated for 24 hrs by Fingerprinting based QUANTI-Blue colorimetric assay. The format is cell-based.
Target sequence in this assay (Q86WV6 whole entry, looked up, change not shown): as the sequence (Q86WV6 whole entry) above
Data set [9] is described as follows: MRT in C57BL/6 mouse at 10 micromol/kg, iv by HPLC/MS/MS analysis. The note with it: in vivo, dose 10 µmol/kg. The format is ADME, organism-based.
The nature of data set [10]: Protein binding in human plasma assessed as unbound fraction at 3 uM incubated for 2 hrs by equilibrium dialysis based HPLC/MS/MS analysis. In kind it is ADME, cell-free. For orientation: In equilibrium dialysis only unbound substance equilibrates across the membrane.
The nature of data set [11]: Aqueous solubility of compound in 0.9% NaCl buffer at pH 6.4 incubated for 2 hrs by HPLC-UV analysis. The format is physicochemical.
A short description of data set [12]: Volume of distribution at steady state in C57BL/6 mouse at 10 micromol/kg, iv by HPLC/MS/MS analysis. The format is ADME, organism-based. The note with it: in vivo, dose 10 µmol/kg, read-out: Vdss.
Data set [13] in a line: Elimination half life in BALB/c syngeneic mouse tumor xenografted with mouse 4T1 cells at 0.16 to 1.4 mg/kg,IT and measured upto 25 hrs by HPLC/MS/MS analysis. In kind it is ADME, organism-based, Neoplasm. The note with it: dose 0.16-1.4 mg/kg, read-out: beta t1/2 (converted).
Data set [14] is described as follows: Chemical stability of compound in phosphate buffer assessed as compound degradation at 1 mg/ml incubated for 8 weeks at 40 degreeC by HPLC-UV analysis. The format is physicochemical. The note with it: read-out: Drug degradation.
Data set [15] in a line: Stability in human plasma assessed as half life at 1 uM by HPLC/MS/MS analysis. In kind it is ADME, cell-free.
A further data set deals with hERG (KCNH2) (Homo sapiens, UniProt Q12809). The data set can be described thus: Inhibition of human ERG at 10 uM. In kind it is toxicity.
Sequence of hERG (KCNH2) (Q12809 whole entry): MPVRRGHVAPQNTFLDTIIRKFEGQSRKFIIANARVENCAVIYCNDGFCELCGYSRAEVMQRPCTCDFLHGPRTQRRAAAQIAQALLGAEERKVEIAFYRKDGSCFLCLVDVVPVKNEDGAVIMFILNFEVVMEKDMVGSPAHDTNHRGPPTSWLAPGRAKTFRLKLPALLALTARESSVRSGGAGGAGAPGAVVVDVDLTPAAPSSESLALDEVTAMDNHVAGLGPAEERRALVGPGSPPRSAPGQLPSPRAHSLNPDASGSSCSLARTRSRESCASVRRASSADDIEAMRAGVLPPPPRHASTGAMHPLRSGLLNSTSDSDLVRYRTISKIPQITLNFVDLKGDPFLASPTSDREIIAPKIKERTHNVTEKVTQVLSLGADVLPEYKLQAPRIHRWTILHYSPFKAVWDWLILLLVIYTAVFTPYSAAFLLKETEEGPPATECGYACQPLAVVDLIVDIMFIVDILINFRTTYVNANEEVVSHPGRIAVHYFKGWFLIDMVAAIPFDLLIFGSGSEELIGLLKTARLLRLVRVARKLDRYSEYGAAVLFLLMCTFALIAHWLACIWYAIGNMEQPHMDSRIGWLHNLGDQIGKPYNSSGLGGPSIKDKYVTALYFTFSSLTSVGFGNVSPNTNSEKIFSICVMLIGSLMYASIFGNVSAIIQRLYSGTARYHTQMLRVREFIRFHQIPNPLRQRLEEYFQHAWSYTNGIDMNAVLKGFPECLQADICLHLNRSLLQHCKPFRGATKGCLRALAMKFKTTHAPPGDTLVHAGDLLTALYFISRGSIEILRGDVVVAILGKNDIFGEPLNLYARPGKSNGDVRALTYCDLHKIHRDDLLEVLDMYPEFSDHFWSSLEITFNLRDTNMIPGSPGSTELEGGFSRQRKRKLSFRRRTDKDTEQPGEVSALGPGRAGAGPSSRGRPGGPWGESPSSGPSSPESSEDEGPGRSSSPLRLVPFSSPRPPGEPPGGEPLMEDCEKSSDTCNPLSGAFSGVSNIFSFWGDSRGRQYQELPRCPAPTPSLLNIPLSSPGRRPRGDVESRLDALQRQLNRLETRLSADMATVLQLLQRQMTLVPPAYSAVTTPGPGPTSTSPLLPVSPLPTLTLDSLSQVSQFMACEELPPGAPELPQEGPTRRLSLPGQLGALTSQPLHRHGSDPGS
Data set [16] in a line: Chemical stability of compound in 0.9% NaCl buffer assessed as compound degradation at 1 mg/ml incubated for 8 weeks at 40 degreeC by HPLC-UV analysis. In kind it is physicochemical. The note with it: read-out: Drug degradation.
Data set [17] can be described thus: Stability in mouse plasma assessed as half life at 1 uM by HPLC/MS/MS analysis. In kind it is ADME, cell-free.
A short description of data set [18]: Clearance in C57BL/6 mouse plasma assessed as hepatic blood flow at 10 micromol/kg, iv by HPLC/MS/MS analysis. The format is ADME, organism-based. The note with it: in vivo, at 10 µmol/kg.
Data set [19] can be described thus: Protein binding in mouse plasma assessed as unbound fraction at 3 uM incubated for 2 hrs by equilibrium dialysis based HPLC/MS/MS analysis. In kind it is ADME, cell-free.
A short description of data set [20]: Aqueous solubility of compound in phosphate buffer at pH 7.6 incubated for 2 hrs by HPLC-UV analysis. In kind it is physicochemical.
A short description of data set [21]: Clearance in C57BL/6 mouse plasma assessed as hepatic blood flow at 1 micromol/kg, iv by HPLC/MS/MS analysis. The note with it: in vivo, at 1 µmol/kg. In kind it is ADME, organism-based.
For data set [22], the target named is T2, Stimulator of interferon genes protein (Mus musculus) (UniProt Q3TBT3).
T2 sequence (whole entry): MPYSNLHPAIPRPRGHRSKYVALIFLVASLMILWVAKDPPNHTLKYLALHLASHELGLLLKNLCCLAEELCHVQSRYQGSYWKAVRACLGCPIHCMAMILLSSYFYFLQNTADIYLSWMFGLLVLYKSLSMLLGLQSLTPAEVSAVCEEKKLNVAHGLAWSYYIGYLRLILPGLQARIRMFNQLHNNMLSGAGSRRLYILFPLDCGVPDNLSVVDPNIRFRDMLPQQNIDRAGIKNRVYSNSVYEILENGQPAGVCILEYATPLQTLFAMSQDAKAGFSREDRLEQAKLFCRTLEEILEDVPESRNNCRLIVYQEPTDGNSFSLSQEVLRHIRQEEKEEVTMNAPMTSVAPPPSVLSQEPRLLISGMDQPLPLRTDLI
The note with it: filed as agonist.
Description: Binding affinity to recombinant mouse STING assessed as change in melting temperature by differential scanning fluorimetry

A short description of data set [23]: Volume of distribution at steady state in C57BL/6 mouse at 1 micromol/kg, iv by HPLC/MS/MS analysis. The format is ADME, organism-based. The note with it: in vivo, dose 1 µmol/kg, read-out: Vdss.
Data set [24] can be described thus: MRT in C57BL/6 mouse at 1 micromol/kg, iv by HPLC/MS/MS analysis. In kind it is ADME, organism-based. The note with it: in vivo, dose 1 µmol/kg.

Consider `Nc1ncnc2c1ncn2[C@@H]1O[C@@]23CO[C@@H]1[C@@H]2O[P@](=O)(S)OC[C@H]1O[C@@H](n2cnc4c(=O)[nH]ncc42)[C@H](O[P@](=O)(S)OC3)[C@@H]1O`, for which, in data set [1], the deltaTm is 17 K. Moreover, in data set [2], the EC50 was found to be 0.17 µM.
Taken in the same sequence, the figures for `Nc1ncnc2c1ncn2[C@@H]1CO[C@@H]2O[P@@](=O)(S)O[C@@H]3[C@H](O)[C@@H](CO[P@@](=O)(S)O[C@H]2[C@H]1O)O[C@H]3n1cnc2c(=O)[nH]ncc21` were 1.75 K and more than 100 µM.
Taken in the same sequence, the figures for `CO[C@@H]1[C@@H]2O[P@](=O)(S)OC[C@H]3O[C@@H](n4cnc5c(=O)[nH]ncc54)[C@H](O[P@](=O)(S)OC[C@H]2O[C@H]1n1cnc2c(N)ncnc21)[C@@H]3O` were 3.7 K and more than 100 µM.
`Nc1ncnc2c1ncn2[C@@H]1O[C@@H]2CO[P@@](=O)(S)O[C@@H]3[C@H](O)[C@@H](CO[P@@](=O)(S)O[C@H]2[C@H]1F)O[C@H]3c1cnn2c(=O)[nH]ncc12` gave a deltaTm in data set [1] of 18 K. The concentration for a half-maximal effect (EC50) in data set [3] is more than 50 µM; in data set [4], 0.83 µM; in [2], 0.14 µM; in data set [5], 0.68 µM; in [6], 1.04 µM; in data set [7], 24.3 µM. Moreover, the EC50 in data set [8] came to 3.38 µM.
In the case of `Nc1ncnc2c1ncn2[C@@H]1O[C@@H]2CO[P@@](=O)(S)O[C@@H]3[C@H](O)[C@@H](CO[P@@](=O)(S)O[C@H]2[C@H]1F)O[C@H]3n1cnc2c(=O)[nH]ncc21`, the MRT in [9] is 0.53 h. Besides, the fraction unbound at 2 h, 3 µM was found to be 0.74 in [10] and 0.77 in data set [19]. Besides, the solubility at 2 h in data set [11] and in data set [20] was more than 10000 µg/mL each time. Besides, the Vd in data set [12] was 2.2 L/kg. Also, in data set [13], the half-life was 7 h. Besides, the degraded at 1344 h, 1 mg/ml in [14] and in data set [16] was more than 0.5% in each case. Further, the half-life at 1 µM in data set [15] and in data set [17] was more than 2.17 h in each case. This molecule displayed an inhibition at 10 µM at hERG (KCNH2) of 1%. Besides, in data set [18], the QH stood at 78%.
Molecule `O=c1[nH]ncc2c1ncn2[C@@H]1O[C@@H]2CO[P@@](=O)(S)O[C@H]3[C@@H](O)[C@H](n4cnc5ccccc54)O[C@@H]3CO[P@@](=O)(S)O[C@@H]1[C@@H]2O` yielded a deltaTm in data set [1] of 3.6 K. Also, in data set [2], the EC50 is more than 100 µM.
The molecule `Nc1ncnc2c1ncn2[C@@H]1O[C@@H]2CO[P@@](=O)(S)O[C@@H]3[C@H](O)[C@@H](CO[P@@](=O)(S)O[C@H]2[C@H]1F)O[C@H]3n1cnc2c(=O)[nH]nnc21` registered a deltaTm in data set [1] of 23.9 K. Also, the EC50 in data set [3] is more than 50 µM; in data set [4], 0.58 µM; in data set [2], 0.16 µM; in [5] it was 0.61 µM; in data set [6], 0.58 µM; in [7], 6.01 µM. The EC50 in [8] amounted to 1.88 µM.
Regarding `Nc1ncnc2c1ncn2[C@@H]1O[C@@H]2CO[P@@](=O)(S)O[C@@H]3[C@H](O)[C@@H](CO[P@@](=O)(S)O[C@H]2[C@H]1O)O[C@H]3n1cnc2c(N)ncnc21`, the QH in data set [21] was determined as 120%. Further, the deltaTm in data set [22] came out at 13.5 K. The molecule also came in with an inhibition at 10 µM against hERG (KCNH2) of 0.4%. Also, the Vd in [23] was 0.8 L/kg. For the same molecule, the MRT in [24] worked out at 7.2 min. In [17], the half-life at 1 µM is more than 2.17 h. The fraction unbound at 2 h, 3 µM in data set [19] was 0.32.
`O=c1[nH]ncc2c1ncn2[C@@H]1O[C@@H]2CO[P@@](=O)(S)O[C@H]3[C@@H](O)[C@H](n4cnc5cncnc54)O[C@@H]3CO[P@@](=O)(S)O[C@@H]1[C@@H]2O`: in data set [1], the deltaTm was 13.9 K. In addition, the EC50 is more than 50 µM in data set [3]; 1.95 µM in data set [4]; 0.23 µM in data set [2]; 1.67 µM in data set [5]; 2.06 µM in data set [6]; more than 50 µM in data set [7]. Besides, the EC50 in data set [8] is 22.5 µM.
